The text below walks through data of US20240140958A1, “FUSED QUADRACYCLIC COMPOUNDS, COMPOSITIONS AND USES THEREOF” (Tabomedex Biosciences, Inc., priority 2021, published 2024).

Test [1] deals with THP-1 cells. Briefly: THP-1 cell assay: LPS-stimulated pSer78-Hsp27 ELISA. It counts as cell-based. The conditions noted are these: Homo sapiens, PMA-differentiated THP-1 cells, compound 60 min before 20 ng/mL LPS for 30 min. From the text: Materials and Reagents for Measuring Activity in THP-1 Cells: • 1) THP-1 cells (Cell bank of Shanghai) • 2) PMA (Sigma, Cat.No. P1585) • 3) LPS (Sigma, Cat.No. L4516) • 4) 96-well tissue-culture treated plate (Grenier, Cat.No. 655180) • 5) FBS (Thermofisher, Cat.No. 10100147) • 6) Complete EDTA-free protease inhibitor Cocktail (Roche, Cat.No. 4693132001) • 7) PhosSTOP (Roche, Cat.No. 4906845001) • 8) Phosphor-Hsp27 (Ser78) Sandwich Elisa kit (CST, Cat.No. 7295)
Cell Assay Procedure: • 1) Day 0: THP-1 cells are seeded at 50K/well in complete media (1640+10% FBS+50 μM β-ME)+20 ng/mL PMA in 96-well plate • 2) Day 1: PMA containing media is removed after 24 h incubation (37° C./5% CO2), and replaced with complete growth media. Cells are incubated an additional 48 h to recover. • 3) Day 3: Cells are incubated with or without compounds at indicated concentrations for 60 min, prior to addition of 20 ng/mL LPS. Cells are stimulated for 30 min with LPS, washed 1× with ice cold PBS, lysed on ice in Lysis buffer provided in ELISA kit with Roche protease & phosphatase inhibitors. Extracts are clarified by refrigerated centrifugation & stored at −80° C. until pHsp27/total Hsp27 ELISAs • 4) Day 3 or Day 4: Cell Signaling Technology ELISA is run for pSer78-Hsp27 on lysates diluted to approximately 2.5 μg/well. • 5) The absorbance at 450 nm was read in a SpectraMax plus plate reader (Molecular Devices). Data was processed using GraphPad prism 8.0.
(In an ELISA, binding on a coated surface is turned into a signal by an enzyme label.)

Test [2] addresses T1, MAPKAPK2 Recombinant Human Protein (Homo sapiens, UniProt P49137).
T1 construct: purchased ThermoFisher pv3317
Briefly: MK2 kinase assay (Z'-LYTE kinase assay kit). Particulars: inhibition of MK2 biochemical activity; 90 min incubation at room temperature. How it is done: Materials and Reagents for Measuring Inhibition of MK2 Biochemical Activity: • 1) Assay plate: 384 Well Low Volume Black Round Bottom Polystyrene NBS Microplate (Corning, Cat.No. 4514) • 2) MK2 kinase assay kit: Z' LYTE KINASE ASSAY KIT (ThermoFisher, Cat.No. pv3177) • 3) MAPKAPK2 Recombinant Human Protein (ThermoFisher, Cat.No. pv3317) • 4) DMSO (Vetec, Cat.No. V900090) • 5) DTT (Sigma, Cat.No. D0632)
MK2 Kinase Assay Procedure: • 1) Dispense 5 μl Kinase/Peptide Mixture to each wells of 384-well plate • 2) Add 2.5 μl 4× Test Compound to each well • 3) Add 2.5 μl 4× ATP Solution to each well • 4) After 90 minutes incubation at room temperature, add 5 μl Development Solution to each well • 5) After 60 minutes incubation at room temperature, add 5 μl stop Solution to each well • 6) Measure the Coumarin (Ex. 400 nm, Em. 445 nm) and Fluorescein (Ex. 400 nm, Em. 520 nm) emission signals on an Envision plate reader (PerkinElmer)

Some results are limits rather than exact numbers.

T1 sequence (P49137 whole entry): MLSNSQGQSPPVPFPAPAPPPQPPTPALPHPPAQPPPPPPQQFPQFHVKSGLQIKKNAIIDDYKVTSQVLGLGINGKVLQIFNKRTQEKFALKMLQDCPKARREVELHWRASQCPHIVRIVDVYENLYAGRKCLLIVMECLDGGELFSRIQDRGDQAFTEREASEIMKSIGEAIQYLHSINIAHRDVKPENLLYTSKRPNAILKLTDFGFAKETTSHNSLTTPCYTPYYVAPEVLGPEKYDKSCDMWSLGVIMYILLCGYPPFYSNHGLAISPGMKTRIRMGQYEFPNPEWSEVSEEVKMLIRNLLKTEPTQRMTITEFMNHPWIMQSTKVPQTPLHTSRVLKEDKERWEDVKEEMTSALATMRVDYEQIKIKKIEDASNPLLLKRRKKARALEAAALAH

As for `N#Cc1ccc(-c2cc3n(c2)Cc2cc(N4C[C@@H](CN5CCC(F)C5)CC4=O)ccc2-n2ccnc2-3)cc1` (stereo partly drawn) [Example 26, 4-(7-((4R)-4-((3-Fluoropyrrolidin-1-yl)methyl)-2-oxopyrrolidin-1-yl)-9H-benzo[e]imidazo[2,1-c]pyrrolo[1,2-a][1,4]diazepin-12-yl)benzonitrile], the IC50 in test [1] is 0.1 to 0.2 µM; in test [2], 0.05 to 0.1 µM.
As for `CN(C)C[C@H]1CCN1C(=O)c1ccc2c(c1)Cn1cc(-c3ccc(C#N)cc3)cc1-c1nccn1-2` [Example 115], the IC50 in test [1] was 0.2 to 0.3 µM; in test [2], less than 0.05 µM.
For `CN1CC(CN2C(=O)CN(c3ccc4c(c3)Cn3cc(-c5ccc(C#N)cc5)cc3-c3nccn3-4)C2=O)C1` [Example 67] the same measures were more than 1 µM and less than 0.05 µM.
For `CN1CC(N2CCN(c3ccc4c(c3)Cn3cc(-c5ccc(C#N)cc5)cc3-c3nccn3-4)C2=O)C1` [Example 58, 4-(7-(3-(1-Methylazetidin-3-yl)-2-oxoimidazolidin-1-yl)-9H-benzo[e]imidazo[2,1-c]pyrrolo[1,2-a][1,4]diazepin-12-yl)benzonitrile] the same measures were less than 0.05 µM and less than 0.05 µM.
Turning to `CN(C)[C@H]1CCN(c2ccc3c(c2)Cn2cc(-c4ccc(C#N)cc4)cc2-c2nccn2-3)C1=O` [Example 25, (S)-4-(7-(3-(Dimethylamino)-2-oxopyrrolidin-1-yl)-9H-benzo[e]imidazo [2,1-c]pyrrolo[1,2-a][1,4]diazepin-12-yl)benzonitrile], the IC50 in test [1] fell in the range of 0.3 to 0.4 µM; in test [2], 0.05 to 0.1 µM.
For `CN(C)CCn1cnn(-c2ccc3c(c2)Cn2cc(-c4ccc(C#N)cc4)cc2-c2nccn2-3)c1=O` [Example 79, 4-(7-(4-(2-(Dimethylamino)ethyl)-5-oxo-4,5-dihydro-1H-1,2,4-triazol-1-yl)-9H-benzo[e]imidazo[2,1-c]pyrrolo[1,2-a][1,4]diazepin-12-yl)benzonitrile] the same measures were 0.1 to 0.2 µM and 0.05 to 0.1 µM.
For `N#Cc1ccc(-c2cc3n(c2)Cc2cc(N4C[C@@H](CN5CC(F)C5)CC4=O)ccc2-n2ccnc2-3)cc1` [Example 28] the same measures were 0.5 to 1 µM and less than 0.05 µM.
On to `CC(C)(N)[C@@H]1CC(=O)N(c2ccc3c(c2)Cn2cc(-c4ccc(C#N)cc4)cc2-c2nccn2-3)C1` [Example 53], for which the IC50 was 0.3 to 0.4 µM in test [1] and less than 0.05 µM in test [2].
For `CN(C)CC[C@H]1CCN(c2ccc3c(c2)Cn2cc(-c4ccc(C#N)cc4)cc2-c2nccn2-3)C1=O` (single isomer, unassigned) [Example 41] the same measures were less than 0.05 µM and less than 0.05 µM.
For `CN(C)CCNC(=O)c1ccc2c(c1)Cn1cc(-c3ccc(C#N)cc3)cc1-c1nccn1-2` [Example 101, 12-(4-Cyanophenyl)-N-(2-(dimethylamino)ethyl)-9H-benzo[e]imidazo[2,1-c]pyrrolo[1,2-a][1,4]diazepine-7-carboxamide] the same measures were 0.1 to 0.2 µM and 0.05 to 0.1 µM.
For `CN(C)C[C@H]1CC(=O)N(c2ccc3c(c2)Cn2cc(-c4ccc(C#N)cc4)cc2-c2nccn2-3)C1` [Example 7, (R)-4-(7-(4-((Dimethylamino)methyl)-2-oxopyrrolidin-1-yl)-9H-benzo[e]imidazo[2,1-c]pyrrolo[1,2-a][1,4]diazepin-12-yl)benzonitrile] the same measures were less than 0.05 µM and less than 0.05 µM.
As to `CN(C)C1CCN(C(=O)Nc2ccc3c(c2)Cn2cc(-c4ccc(C#N)cc4)cc2-c2nccn2-3)C1` (stereo not shown) [Example 72], the IC50 in test [1] and in test [2] was less than 0.05 µM in each case.
On to `N#Cc1ccc(-c2cc3n(c2)Cc2cc(C(=O)N4CC(C#N)C4)ccc2-n2ccnc2-3)cc1` [Example 110], for which the values for the IC50 in test [1] and in test [2] were 0.05 to 0.1 µM and less than 0.05 µM, respectively.
For `CN(C)C[C@@H]1CN(c2ccc3c(c2)Cn2cc(-c4ccc(C#N)cc4)cc2-c2nccn2-3)C(=O)N1C` [Example 56, (R)-4-(7-(4-((Dimethylamino)methyl)-3-methyl-2-oxoimidazolidin-1-yl)-9H-benzo[e]imidazo[2,1-c]pyrrolo[1,2-a][1,4]diazepin-12-yl)benzonitrile] the same measures were 0.2 to 0.3 µM and 0.05 to 0.1 µM.
For `CN1CC2(CCN(c3ccc4c(c3)Cn3cc(-c5ccc(C#N)cc5)cc3-c3nccn3-4)C2=O)C1` [Example 24, 4-(7-(2-Methyl-5-oxo-2,6-diazaspiro[3.4]octan-6-yl)-911-benzo[e]imidazo [2,1-c]pyrrolo[1,2-a][1,4]diazepin-12-yl)benzonitrile] the same measures were less than 0.05 µM and less than 0.05 µM.
For `CN(C)C[C@@H]1CN(c2ccc3c(c2)Cn2cc(-c4ccc(C#N)cc4)cc2-c2nccn2-3)C(=O)O1` [Example 1, (R)-4-(7-(5-((Dimethylamino)methyl)-2-oxooxazolidin-3-yl)-9H-benzo [e]imidazo[2,1-c]pyrrolo[1,2-a][1,4]diazepin-12-yl)benzonitrile] the same measures were less than 0.05 µM and less than 0.05 µM.
For the compound `CN(C)CCN1CCN(c2ccc3c(c2)Cn2cc(-c4ccc(C#N)cc4)cc2-c2nccn2-3)C1=O` [Example 57, 4-(7-(3-(2-(Dimethylamino)ethyl)-2-oxoimidazolidin-1-yl)-9H-benzo[e]imidazo[2,1-c]pyrrolo[1,2-a][1,4]diazepin-12-yl)benzonitrile], the IC50 in test [1] and in test [2] was less than 0.05 µM each time.
Take `CC(C)(N)[C@@H]1CN(c2ccc3c(c2)Cn2cc(-c4ccc(C#N)cc4)cc2-c2nccn2-3)C(=O)O1` (single isomer, unassigned) [Example 21]: the IC50 in test [1] and in test [2] was less than 0.05 µM each time.
For the compound `N#Cc1ccc(-c2cc3n(c2)Cc2cc(N4C[C@@H](CN)CC4=O)ccc2-n2ccnc2-3)cc1` [Example 8], the IC50 in test [1] was 0.3 to 0.4 µM; in test [2] it was less than 0.05 µM.
For `CN(C)[C@H]1CCN(C(=O)Nc2ccc3c(c2)Cn2cc(-c4ccc(C#N)cc4)cc2-c2nccn2-3)C1` [Example 73] the same measures were less than 0.05 µM and less than 0.05 µM.
Consider `CN(C)CCN1C(=O)CN(c2ccc3c(c2)Cn2cc(-c4ccc(C#N)cc4)cc2-c2nccn2-3)C1=O` [Example 75, 4-(7-(3-(2-(Dimethylamino)ethyl)-2,4-dioxoimidazolidin-1-yl)-9H-benzo[e]imidazo[2,1-c]pyrrolo[1,2-a][1,4]diazepin-12-yl)benzonitrile], for which the IC50 in test [1] and in test [2] was less than 0.05 µM in each case.
`CC(C)(C1CC(=O)N(c2ccc3c(c2)Cn2cc(-c4ccc(C#N)cc4)cc2-c2nccn2-3)C1)N1CCC1` (stereo not shown) [Example 55, 4-(7-(4-(2-(Azetidin-1-yl)propan-2-yl)-2-oxopyrrolidin-1-yl)-9H-benzo[e]imidazo[2,1-c]pyrrolo[1,2-a][1,4]diazepin-12-yl)benzonitrile]: the IC50 in test [1] and in test [2] was less than 0.05 µM throughout.
For `CC1(C)CCN1C[C@@H]1CN(c2ccc3c(c2)Cn2cc(-c4ccc(C#N)cc4)cc2-c2nccn2-3)C(=O)O1` [Example 6, (R)-4-(7-(5-((2,2-Dimethylazetidin-1-yl)methyl)-2-oxooxazolidin-3-yl)-9H-benzo[e]imidazo[2,1-c]pyrrolo[1,2-a][1,4]diazepin-12-yl)benzonitrile], the IC50 in test [1] and in test [2] was less than 0.05 µM in each case.
For `CN(C)CC1CN(C(=O)c2ccc3c(c2)Cn2cc(-c4ccc(C#N)cc4)cc2-c2nccn2-3)C1` [Example 117], the IC50 in test [1] lay in the range of 0.5 to 1 µM; in test [2], 0.05 to 0.1 µM.
Turning to `CN(C)CC[C@@H]1CCN(c2ccc3c(c2)Cn2cc(-c4ccc(C#N)cc4)cc2-c2nccn2-3)C1=O` (single isomer, unassigned) [Example 42], the IC50 in test [1] and in test [2] was less than 0.05 µM each time.
Consider `CCNC[C@H]1CC(=O)N(c2ccc3c(c2)Cn2cc(-c4ccc(C#N)cc4)cc2-c2nccn2-3)C1` [Example 10], for which the results for the IC50 in test [1] and in test [2] were 0.1 to 0.2 µM and less than 0.05 µM, respectively.

The term IC50 denotes the concentration that gives 50% inhibition.
